Assay results as given in patent publication US20110269815A1, “METHODS OF REDUCING CELLULAR PROLIFERATION BY INHIBITING ACSVL3” (THE JOHNS HOPKINS UNIVERSITY, priority 2008, published 2011).
Numbered stars: 1 amine (or outer) side, 2 acyl side, 3 side chain; on linkers, the order of the positions; unused ones are H or OH. Bridge positions count the residues as written; N and C are the ends. Square brackets hold non-standard residues; d marks the D form. Peptide text beside a SMILES is read from it. I, II: the chains in the order shown. * marks the point of attachment. Actinocin(9to1) = Cc1c2oc3c(C)ccc(C(=O)[*:1])c3nc-2c(C(=O)[*:2])c(N)c1=O; NMeV = CN[C@H](C(=O)O)C(C)C; Cbz = O=C(OCc1ccccc1)*; Sar = CNCC(=O)O; CH2F = FC*

Experiments:
ACSVL3 [1] = assay: Acyl-CoA synthetase activity of control vs ACSVL3-deficient U87 cells with candidate small molecule inhibitors; type: biochemical, human; conditions: 80 μM drug; palmitic acid substrate; preliminary studies, FIG. 14
Procedure: Acyl-CoA synthetase assays. Activation of [1-^14C]palmitate (C16:0) or [1-^14C]lignocerate (C24:0) (Moravek Biochemicals, Brea Calif.) to their CoA derivatives was measured in frozen/thawed cell suspensions or post-nuclear supernatants of xenograft tissue homogenates as previously described (9, 19). Assays contained 15 or 60 μg cell or tissue protein for C16:0 and C24:0 fatty acid substrates, respectively.
For this study, we examined the effects of candidate small molecule inhibitors on the acyl-CoA synthetase activity of control U87 glioblastoma cells and ACSVL3-deficient U87 cells. The 16-carbon fatty acid, palmitic acid, was used as substrate. Drugs were solubilized in dimethylsulfoxide (DMSO, 10 mM) and diluted with phosphate-buffered saline (PBS, 0.8 mM) prior to their inclusion in enzyme assays; the final concentration of drug in the assay was 80 μM. Control incubations contained the vehicle, DMSO diluted in PBS, only. The assay measures the combined enzyme activity of all acyl-CoA synthetases found in U87 cells that are capable of using palmitic acid as substrate. A specific inhibitor of ACSVL3 is one in which there is partial inhibition of total cellular enzyme activity in control U87 cells (grey bars), but not in ACSVL3-deficient U87 cells (black bars).

ACSVL3 [2] = assay: ACSVL3 expression in U373 cells with transcription or translation inhibitor, without or with HGF; type: cell-based, human; conditions: actinomycin D 20 μg/ml, cycloheximide 5 μM; for HGF-induced increase in ACSVL3 expression: HGF 6 hours
Procedure: We then investigated whether the increase in ACSVL3 protein in U373 cells was due to increased transcription of the ACSVL3 gene, or increased translation of ACSVL3 mRNA. U373 cells were incubated without or with HGF for 6 hours in the absence and presence of an inhibitor of transcription, actinomycin D, or the protein synthesis (translation) inhibitor, cycloheximide. Actinomycin D (20 μg/ml) and cycloheximide (5 μM) were added to the culture medium 16 and 8 hours, respectively, prior to the addition of HGF.

Akt = Akt signaling after HGF in control and ACSVL3 KD U87 cells (Western blot); type: cell-based, human; conditions: HGF 20 ng/ml
Procedure: A & B. Effect of HGF treatment on Akt phosphorylation and stability. Control and ACSVL3-3 KD U87 cells were incubated with HGF (20 ng/ml) for the indicated time prior to analysis for total Akt and phospho-Akt levels by Western blot. A, LiCOR Odyssey images; control and KD images were obtained simultaneously. B, Quantitation of the LiCOR data. C. Effect of caspase inhibition on Akt stability. One control and two different knockdown clones produced using the ACSVL3-3 shRNA plasmid were incubated with HGF (20 ng/ml) for the indicated time in the absence or presence of the pan-caspase inhibitor, Z-VAD-FMK (50 μM), prior to analysis for total Akt and phospho-Akt levels by Western blot. […] Left, adherent growth was measured 11.5 days post-transfection as described in the legend to FIG. 4A. Right, anchorage-independent growth was measured by colony formation in soft agar on day 17 post-transfection as described in the legend to FIG. 4B. Mean±standard error is shown; statistical significance was determined by one-way ANOVA with Bonferroni's multiple comparison test. ***, p<0.001 vs. control vector; **, p<0.01 vs. control vector; n.s., p>0.05 vs. control myr-Akt.
Immunohistochemistry, immunofluorescence, and Western blotting. […] ACSVL3 was detected on Western blots with SuperSignal West Pico chemiluminescent substrate (Pierce Biotechnology, Rockford Ill.). […]

ACSVL3 [3] = assay: ACSVL3 expression in U373 glioma cells treated with HGF or EGF (Western blot); type: cell-based, human; conditions: for ACSVL3 expression: HGF 20 ng/ml or EGF 30 ng/ml, 16 hrs
Procedure: (§1) A. Human U87, U373, and Mayo-22 glioma cells were grown to ˜80% confluence. Cells were either untreated or incubated 16 hrs in the presence of HGF (20 ng/ml; gift from Genentech; South San Francisco Calif.) or EGF (30 ng/ml; Calbiochem/EMD; San Diego Calif.) before harvesting and Western blot analysis for ACSVL3 expression. Each lane contained 30 μg total cellular protein. Actin was detected as a loading control. The three sections were from the same Western blot; images were obtained simultaneously. B. U87 cells stably expressing constitutively active EGFR (EGFRvIII) or corresponding control U87 cells were harvested and analyzed by Western blot. Actin was detected as a loading control. C. Tumors were produced in the flanks of athymic nude mice (n=12) by s.c. injection (2 sites per mouse) of 4×10^6 U87 cells. When tumors size reached ˜300 mm^3 (day 14), animals were randomly divided into two groups of 6 mice. One group received i.p. injection (100 μg/20 g body wt) of anti-HGF mAb (L2G7) and the other group received isotype control mAb (5G8) on days 14, 16, and 18. Mice were sacrificed on day 20. Tumor homogenates (50 μg protein) were subjected to Western blot analysis for ACSVL3 expression. Actin expression was used as a loading control.
(§2) Immunohistochemistry, immunofluorescence, and Western blotting. Immunohistochemical staining for ACSVL3 and ACSBG1, and immunofluorescence analysis of ACSVL3, were performed using affinity-purified antibodies as described (9, 15). ACSVL3 was detected on Western blots with SuperSignal West Pico chemiluminescent substrate (Pierce Biotechnology, Rockford Ill.). Total and phospho-Akt (ser473) were detected with antibodies from BD Biosciences (San Jose Calif.) and Cell Signaling Technology (Danvers Mass.), respectively, and quantitated with the LiCOR Odyssey dual wavelength infrared system. Protein was determined by the method of Lowry et al. (16).
Further characterization of induction of ACSVL3 expression in U373 cells. Human U373 glioma cells have low ACSVL3 expression unless treated with hepatocyte growth factor (HGF). […]

ACSVL3 [4] = assay: ACSVL3 expression in Mayo-22 glioma cells treated with HGF or EGF (Western blot); type: cell-based, human; conditions: Mayo 22 cells; HGF 20 ng/ml or EGF 30 ng/ml, 16 hrs
Procedure: as §1, with “One group received i.p. injection (100 μg/20 g body wt) of anti-HGF mAb (L2G7) and the other group received isotype control mAb (5G8) on days 14, 16, and 18. Mice were sacrificed on day 20. Tumor homogenates (50 μg protein) were subjected to Western blot analysis for ACSVL3 expression. Actin expression was used as a loading control.” left out
as §2, with “Immunohistochemical staining for ACSVL3 and ACSBG1, and immunofluorescence analysis of ACSVL3, were performed using affinity-purified antibodies as described (9, 15).” left out

ACSVL3 [5] = assay: ACSVL3 expression in U87 glioma cells treated with HGF or EGF (Western blot); type: cell-based, human; conditions: HGF 20 ng/ml or EGF 30 ng/ml, 16 hrs
Procedure: as §1, with “One group received i.p. injection (100 μg/20 g body wt) of anti-HGF mAb (L2G7) and the other group received isotype control mAb (5G8) on days 14, 16, and 18. Mice were sacrificed on day 20. Tumor homogenates (50 μg protein) were subjected to Western blot analysis for ACSVL3 expression. Actin expression was used as a loading control.” left out
as §2, with “Immunohistochemical staining for ACSVL3 and ACSBG1, and immunofluorescence analysis of ACSVL3, were performed using affinity-purified antibodies as described (9, 15).” left out

CN(C)CCCN1c2ccccc2Sc2ccc(C(F)(F)F)cc21 [Triflupromazine]
inhibition of acyl-CoA synthetase activity in control vs ACSVL3-deficient U87 cells (specificity for ACSVL3) (ACSVL3 [1]): exhibited specificity for ACSVL3

Cc1c2oc3c(C)ccc(C(=O)N[C@@H]4C(=O)N[C@H](C(C)C)C(=O)N5CCC[C@H]5C(=O)N(C)CC(=O)N(C)[C@@H](C(C)C)C(=O)O[C@@H]4C)c3nc-2c(C(=O)N[C@@H]2C(=O)N[C@H](C(C)C)C(=O)N3CCC[C@H]3C(=O)N(C)CC(=O)N(C)[C@@H](C(C)C)C(=O)O[C@@H]2C)c(N)c1=O [actinomycin D] (I: T[dV]P[Sar][NMeV] / II: T[dV]P[Sar][NMeV]; ester I:1-I:C, II:1-II:C; linker I:N-II:N via Actinocin(9to1))
HGF-induced increase in ACSVL3 expression (ACSVL3 [2]): blocked the HGF-induced increase in ACSVL3 expression | ACSVL3 expression in the absence of HGF (ACSVL3 [2]): neither actinomycin D nor cycloheximide affected ACSVL3 expression

CN(C)CCCN1c2ccccc2Sc2ccc(Cl)cc21 [chlorpromazine]
inhibition of acyl-CoA synthetase activity in control vs ACSVL3-deficient U87 cells (specificity for ACSVL3) (ACSVL3 [1]): exhibited specificity for ACSVL3

C[C@@H]1C[C@@H]([C@H](O)CC2CC(=O)NC(=O)C2)C(=O)[C@@H](C)C1 [cycloheximide]
HGF-induced increase in ACSVL3 expression (ACSVL3 [2]): blocked the HGF-induced increase in ACSVL3 expression | ACSVL3 expression in the absence of HGF (ACSVL3 [2]): neither actinomycin D nor cycloheximide affected ACSVL3 expression

Cc1cc(O)c2c(c1)C(=O)c1cc(O)cc(O)c1C2=O [emodin]
inhibition of acyl-CoA synthetase activity in control vs ACSVL3-deficient U87 cells (specificity for ACSVL3) (ACSVL3 [1]): inhibit enzyme activity similarly in both control and ACSVL3-deficient U87 cells

OCCN1CCN(CC/C=C2/c3ccccc3Sc3ccc(C(F)(F)F)cc32)CC1 [flupenthixol]
inhibition of acyl-CoA synthetase activity in control vs ACSVL3-deficient U87 cells (specificity for ACSVL3) (ACSVL3 [1]): inhibit both control and ACSVL3-deficient cells, but show greater inhibition in control U87 cells

O=C1NCN(c2ccccc2)C12CCN(CCCC(c1ccc(F)cc1)c1ccc(F)cc1)CC2 [fluspirilene]
inhibition of acyl-CoA synthetase activity in control vs ACSVL3-deficient U87 cells (specificity for ACSVL3) (ACSVL3 [1]): inhibit enzyme activity similarly in both control and ACSVL3-deficient U87 cells

OCCN1CCN(CCCN2c3ccccc3Sc3ccc(Cl)cc32)CC1 [perphenizine]
inhibition of acyl-CoA synthetase activity in control vs ACSVL3-deficient U87 cells (specificity for ACSVL3) (ACSVL3 [1]): exhibited specificity for ACSVL3

Nc1ccc(/N=N/c2ccccc2)c(N)n1 [phenazopyridine]
inhibition of acyl-CoA synthetase activity in control vs ACSVL3-deficient U87 cells (specificity for ACSVL3) (ACSVL3 [1]): inhibit enzyme activity similarly in both control and ACSVL3-deficient U87 cells

CC(CN1c2ccccc2Sc2ccccc21)N(C)C (stereo not shown) [promethazine]
inhibition of acyl-CoA synthetase activity in control vs ACSVL3-deficient U87 cells (specificity for ACSVL3) (ACSVL3 [1]): inhibit enzyme activity similarly in both control and ACSVL3-deficient U87 cells

CN1CCN(CCCN2c3ccccc3Sc3ccc(C(F)(F)F)cc32)CC1 [trifluperazine]
inhibition of acyl-CoA synthetase activity in control vs ACSVL3-deficient U87 cells (specificity for ACSVL3) (ACSVL3 [1]): inhibit both control and ACSVL3-deficient cells, but show greater inhibition in control U87 cells

Cbz-Val-Ala-Asp-CH2F
Akt response to HGF stimulation under caspase inhibition (Akt; ACSVL3 KD U87 cells, Z-VAD-FMK 50 μM): normalized the Akt response to HGF stimulation

EGF: EGFR ligand, epidermal growth factor
ACSVL3 expression (ACSVL3 [3]): increased ACSVL3 expression | ACSVL3 expression (ACSVL3 [4]): increased ACSVL3 expression | ACSVL3 expression (ACSVL3 [5]): not increased above its high basal expression levels

HGF: Hepatocyte growth factor, c-Met agonist
Akt phosphorylation (Ser-473) (Akt; control-transfected U87 glioma cells): increased rapidly and remained elevated for up to two hours | time course of induction of ACSVL3 protein (ACSVL3 [3]; FIG. 12): increased in U373 cells as early as 2 hours | ACSVL3 expression (ACSVL3 [3]): induce ACSVL3 expression levels | ACSVL3 expression (ACSVL3 [4]): induce ACSVL3 expression levels | ACSVL3 expression (ACSVL3 [5]): not increased above its high basal expression levels
